From US20240360175A1, “PEPTIDE DERIVATIVES AND RELATED USES AS OREXIN AGONISTS” (Centessa Pharmaceuticals (UK) Limited, priority 2021, published 2024)
Numbered stars: 1 amine (or outer) side, 2 acyl side, 3 side chain; on linkers, the order of the positions; unused ones are H or OH. Square brackets hold non-standard residues; d marks the D form. Peptide text beside a SMILES is read from it. * marks the point of attachment. X8 = CCCCCC[C@H](NC(=O)[C@@H](NC[C@H](CC(C)C)N*)[C@@H](C)O)C(N)=O; X7 = O=C([C@@H](N[*:1])c1cccc2ccccc12)[*:2]; hArg(Et2) = CCN=C(NCC)NCCCC[C@H](N)C(=O)O; PEG8 = NCCOCCOCCOCCOCCOCCOCCOCCOCCC(=O)O; X1 = O=C(CN(CCc1ccc2ccccc2c1)[*:1])[*:2]; Phg(4-OMe) = COc1ccc([C@H](N)C(=O)O)cc1; X4 = CN(C)CCOCCOCCOCCOCCOCCOCCC(=O)*; Gly(NCH2CH2Ph) = O=C(O)CNCCc1ccccc1; PEG6 = NCCOCCOCCOCCOCCOCCOCCC(=O)O; Hyp = O=C(O)[C@@H]1C[C@@H](O)CN1; Hpg = N[C@H](C(=O)O)c1ccc(O)cc1; NMeN = CN[C@@H](CC(N)=O)C(=O)O; Aoc(2) = CCCCCC[C@H](N)C(=O)O; PEG4 = NCCOCCOCCOCCOCCC(=O)O; Phg = N[C@H](C(=O)O)c1ccccc1; Cbz = O=C(OCc1ccccc1)*

Columns and labels:
[1] = target: T1, human orexin type 1 receptor (hOX1R) (Homo sapiens, UniProt O43613); assay: Measurement of orexin type 1 receptor agonist activity (FLIPR TETRA intracellular Ca2+ fluorescence); format: cell-based; details: CHO cells expressing hOX1R; agonist activity, Ca2+ fluorescence; read-out: hOX1 pEC50 (converted)
T1 construct: expressed in transfected cells
T1 sequence (O43613 1-425): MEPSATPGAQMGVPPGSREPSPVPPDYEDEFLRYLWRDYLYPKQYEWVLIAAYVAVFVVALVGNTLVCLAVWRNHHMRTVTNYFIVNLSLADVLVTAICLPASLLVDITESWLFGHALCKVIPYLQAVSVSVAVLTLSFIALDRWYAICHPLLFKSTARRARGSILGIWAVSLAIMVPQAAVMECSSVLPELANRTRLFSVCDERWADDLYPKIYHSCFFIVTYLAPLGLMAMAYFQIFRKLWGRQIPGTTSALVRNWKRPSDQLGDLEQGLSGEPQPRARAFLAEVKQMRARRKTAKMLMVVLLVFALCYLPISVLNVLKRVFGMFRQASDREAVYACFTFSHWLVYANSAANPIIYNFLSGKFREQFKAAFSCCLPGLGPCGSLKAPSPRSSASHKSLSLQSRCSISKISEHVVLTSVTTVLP
Protocol: (§1) Stable cell line generation. Obtainment of cells stably expressing either human orexin type 2 or human orexin type 1 receptor: to obtain a stable cell line the Orexin receptor cDNA was inserted into pcDNA3.1(+) plasmid vector and clones identified by G418 drug resistance selection. […] A single clone for OX2R—CHO and OX1R—CHO were grown in bulk and frozen to generate a cell bank for routine screening.
(§2) Measurement of orexin type 1 receptor agonist activity. Chinese hamster ovary (CHO) cells expressing human orexin type 1 receptor (hOX1R) were seeded in each well of 384 well black clear bottom plates (BD Flacon) at 10,000 cells per well and cultured for 24 h in an Ham's F12 (Gibco) medium containing 10% fetal calf serum (Sigma Aldrich) under the conditions of 37° C., 5% CO2. After removal of the medium, 50 μL of assay buffer 1 (0.1% bovine serum albumin (Sigma Aldrich), 20 mM HEPES (Molecular Dimensions), […] probenecid (Sigma Aldrich), 1× Calcium 5 dye (Molecular Devices) in Hank's balanced salt solution (Invitrogen)) was added, and the cells were incubated for 60 min under the conditions of 37° C., 5% CO2. A test peptide was dissolved in dimethyl sulfoxide (Sigma Aldrich) to 1 mM, and then diluted with assay buffer 2 (20 mM HEPES, Hank's balanced salt solution, 0.1% bovine serum albumin). For the reaction, a test peptide solution (10 μl) was added using Fluorescent Imaging Plate Reader TETRA (FLIPR TETRA: manufactured by Molecular Devices), a fluorescence value (excitation wavelength 488 nm, measurement wavelength 570 nm) of each well was measured every one second for 2 min, and the agonist activity was determined using the area of the fluorescence value as an indicator of intracellular Ca^2+ concentration. The agonist activity of the test peptide was calculated assuming that the fluorescence value of the well added with only the dilution buffer was 0% and the fluorescence value of the well added with 10 nM human orexin A (Tocris) buffer was 100%. As used herein, Emax indicates the value at 1 μM concentration when orexin A is converted to a full agonist (maximum value of agonist activity: 100%).

[2] = target: T2, human orexin type 2 receptor (hOX2R) (Homo sapiens, UniProt O43614); assay: Measurement of orexin type 2 receptor agonist activity (FLIPR TETRA intracellular Ca2+ fluorescence); format: cell-based; details: CHO cells expressing hOX2R; agonist activity, Ca2+ fluorescence; read-out: hOX2 pEC50 (converted)
T2 construct: expressed in transfected cells
T2 sequence (O43614 1-444): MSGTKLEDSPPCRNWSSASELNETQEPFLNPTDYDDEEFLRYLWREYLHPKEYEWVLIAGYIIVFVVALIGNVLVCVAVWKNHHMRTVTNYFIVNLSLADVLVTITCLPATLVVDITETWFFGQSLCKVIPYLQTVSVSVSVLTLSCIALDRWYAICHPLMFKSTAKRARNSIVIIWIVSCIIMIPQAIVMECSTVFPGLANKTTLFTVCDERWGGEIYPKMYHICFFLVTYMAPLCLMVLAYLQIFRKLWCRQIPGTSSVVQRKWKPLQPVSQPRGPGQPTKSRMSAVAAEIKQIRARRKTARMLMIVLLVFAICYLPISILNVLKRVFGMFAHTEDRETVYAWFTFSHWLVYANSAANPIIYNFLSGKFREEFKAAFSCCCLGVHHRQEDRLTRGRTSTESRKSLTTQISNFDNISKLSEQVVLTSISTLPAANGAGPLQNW
Protocol: as §1
as §2, with “type 2” for “type 1”, “receptor (hOX2R)” for “receptor (hOX1R) were”

Row | Compound | EC50 [1] | EC50 [2]
1 | CCCCCC[C@H](NC(=O)[C@@H](NC[C@H](CC(C)C)NC(=O)[C@@H](NC(=O)CNC(=O)[C@@H](NC(=O)[C@H](C)NC(=O)[C@@H]1C[C@@H](O)CN1C(=O)[C@H](CC(N)=O)NC(=O)CN(CCc1ccccc1)C(=O)CCOCCOCCOCCOCCOCCOCCN)c1ccccc1)[C@@H](C)CC)[C@@H](C)O)C(N)=O [Peptide 1] (H-[PEG6][Gly(NCH2CH2Ph)]N[Hyp]A[Phg]GI-X8) | > 10 nM | < 0.1 nM
2 | CCCCCC[C@H](NC(=O)[C@@H](NC(=O)[C@H](CC(C)C)NC(=O)[C@@H](NC(=O)CNC(=O)[C@@H](NC(=O)[C@H](C)NC(=O)[C@@H]1C[C@@H](O)CN1C(=O)[C@H](CC(N)=O)NC(=O)CN(CCc1ccccc1)C(=O)[C@H](CCCNC(=N)N)NC(=O)CCOCCOCCOCCOCCOCCOCCN(C)C)c1ccccc1)[C@@H](C)CC)[C@@H](C)O)C(N)=O [Peptide 2] (X4-R[Gly(NCH2CH2Ph)]N[Hyp]A[Phg]GILT[Aoc(2)]-NH2) | 1 to 10 nM | < 0.1 nM
3 | CCCCCC[C@H](NC(=O)[C@@H](NC(=O)[C@H](CC(C)C)NC(=O)[C@@H](NC(=O)CNC(=O)[C@@H](NC(=O)[C@H](C)NC(=O)[C@@H]1C[C@@H](O)CN1C(=O)[C@H](CC(N)=O)NC(=O)CN(CCc1ccccc1)C(=O)[C@H](CCCNC(=N)N)NC(=O)CCOCCOCCOCCOCCOCCOCCN)c1ccccc1)[C@@H](C)CC)[C@@H](C)O)C(N)=O [Peptide 3] (H-[PEG6]R[Gly(NCH2CH2Ph)]N[Hyp]A[Phg]GILT[Aoc(2)]-NH2) | > 10 nM | < 0.1 nM
4 | CCCCCC[C@H](NC(=O)[C@@H](NC(=O)[C@H](CC(C)C)NC(=O)[C@@H](NC(=O)CNC(=O)[C@@H](NC(=O)[C@H](C)NC(=O)[C@@H]1C[C@@H](O)CN1C(=O)[C@H](CC(N)=O)NC(=O)CN(CCc1ccccc1)C(=O)[C@@H](N)CCCCN/C(=N/CC)NCC)c1ccccc1)[C@@H](C)CC)[C@@H](C)O)C(N)=O [Peptide 4] (H-[hArg(Et2)][Gly(NCH2CH2Ph)]N[Hyp]A[Phg]GILT[Aoc(2)]-NH2) | > 10 nM | < 0.1 nM
5 | CCCCCC[C@H](NC(=O)[C@@H](NC(=O)[C@H](CC(C)C)NC(=O)[C@@H](NC(=O)CNC(=O)[C@@H](NC(=O)[C@H](C)NC(=O)[C@@H]1C[C@@H](O)CN1C(=O)[C@H](CC(N)=O)NC(=O)CN(CCc1ccccc1)C(=O)[C@H](CCCNC(=N)N)NC(=O)CCOCCOCCOCCOCCN)c1ccccc1)[C@@H](C)CC)[C@@H](C)O)C(N)=O [Peptide 5] (H-[PEG4]R[Gly(NCH2CH2Ph)]N[Hyp]A[Phg]GILT[Aoc(2)]-NH2) | > 10 nM | < 0.1 nM
6 | CCCCCC[C@H](NC(=O)[C@@H](NC(=O)[C@H](CC(C)C)NC(=O)[C@@H](NC(=O)CNC(=O)[C@@H](NC(=O)[C@H](C)NC(=O)[C@@H]1C[C@@H](O)CN1C(=O)[C@H](CC(N)=O)N(C)C(=O)CN(CCc1ccccc1)C(=O)[C@H](CCCNC(=N)N)NC(=O)CCOCCOCCOCCOCCOCCOCCN)c1ccccc1)[C@@H](C)CC)[C@@H](C)O)C(N)=O [Peptide 6] (H-[PEG6]R[Gly(NCH2CH2Ph)][NMeN][Hyp]A[Phg]GILT[Aoc(2)]-NH2) | > 10 nM | < 0.1 nM

Other lines, results leading:

Row | EC50 [1] | EC50 [2] | Compound
7 | > 10 nM | < 0.1 nM | CCCCCC[C@H](NC(=O)[C@@H](NC(=O)[C@H](CC(C)C)NC(=O)[C@@H](NC(=O)CNC(=O)[C@@H](NC(=O)[C@H](C)NC(=O)[C@@H]1C[C@@H](O)CN1C(=O)[C@H](CC(N)=O)NC(=O)CN(CCc1ccccc1)C(=O)[C@@H](N)CCCCN/C(=N/CC)NCC)c1ccc(O)cc1)[C@@H](C)CC)[C@@H](C)O)C(N)=O [Peptide 7] (H-[hArg(Et2)][Gly(NCH2CH2Ph)]N[Hyp]A[Hpg]GILT[Aoc(2)]-NH2)
8 | > 10 nM | < 0.1 nM | CCCCCC[C@H](NC(=O)[C@@H](NC(=O)[C@H](CC(C)C)NC(=O)[C@@H](NC(=O)CNC(=O)[C@@H](NC(=O)[C@H](C)NC(=O)[C@@H]1C[C@@H](O)CN1C(=O)[C@H](CC(N)=O)NC(=O)CN(CCc1ccccc1)C(=O)[C@H](CCCNC(=N)N)NC(=O)CCOCCOCCOCCOCCOCCOCCOCCOCCN)c1ccccc1)[C@@H](C)CC)[C@@H](C)O)C(N)=O [Peptide 8] (H-[PEG8]R[Gly(NCH2CH2Ph)]N[Hyp]A[Phg]GILT[Aoc(2)]-NH2)
9 | > 10 nM | < 0.1 nM | CCCCCC[C@H](NC(=O)[C@@H](NC(=O)[C@H](CC(C)C)NC(=O)[C@@H](NC(=O)CNC(=O)[C@@H](NC(=O)[C@H](C)NC(=O)[C@@H]1C[C@@H](O)CN1C(=O)[C@H](CC(N)=O)NC(=O)CN(CCc1ccccc1)C(=O)[C@@H](N)CCCCNC(=NCC)NCC)c1cccc2ccccc12)[C@@H](C)CC)[C@@H](C)O)C(N)=O [Peptide 9] (H-[hArg(Et2)][Gly(NCH2CH2Ph)]N[Hyp]A[X7]GILT[Aoc(2)]-NH2; N-terminus assumed)
10 | > 10 nM | < 0.1 nM | CCCCCC[C@H](NC(=O)[C@@H](NC(=O)[C@H](CC(C)C)NC(=O)[C@@H](NC(=O)CNC(=O)[C@@H](NC(=O)[C@H](C)NC(=O)[C@@H]1C[C@@H](O)CN1C(=O)[C@H](CC(N)=O)NC(=O)CN(CCc1ccccc1)C(=O)[C@H](CCCCNC(=NCC)NCC)NC(=O)OCc1ccccc1)c1ccccc1)[C@@H](C)CC)[C@@H](C)O)C(N)=O [Peptide 10] (Cbz-[hArg(Et2)][Gly(NCH2CH2Ph)]N[Hyp]A[Phg]GILT[Aoc(2)]-NH2)
11 | 1 to 10 nM | < 0.1 nM | CCCCCC[C@H](NC(=O)[C@@H](NC(=O)[C@H](CC(C)C)NC(=O)[C@@H](NC(=O)CNC(=O)[C@@H](NC(=O)[C@H](C)NC(=O)[C@H](Cc1c[nH]cn1)NC(=O)[C@H](CC(N)=O)NC(=O)CN(CCc1ccc2ccccc2c1)C(=O)[C@@H](N)CCCCNC(=NCC)NCC)c1ccccc1)[C@@H](C)CC)[C@@H](C)O)C(N)=O [Peptide 11] (H-[hArg(Et2)][X1]NHA[Phg]GILT[Aoc(2)]-NH2; N-terminus assumed)
12 | > 10 nM | < 0.1 nM | CCCCCC[C@H](NC(=O)[C@@H](NC(=O)[C@H](CC(C)C)NC(=O)[C@@H](NC(=O)CNC(=O)[C@@H](NC(=O)[C@H](C)NC(=O)[C@H](Cc1c[nH]cn1)NC(=O)[C@H](CC(N)=O)NC(=O)CN(CCc1ccccc1)C(=O)[C@@H](N)CCCCN/C(=N/CC)NCC)c1ccc(OC)cc1)[C@@H](C)CC)[C@@H](C)O)C(N)=O [Peptide 12] (H-[hArg(Et2)][Gly(NCH2CH2Ph)]NHA[Phg(4-OMe)]GILT[Aoc(2)]-NH2)
